Data published in US6867305B2, “Synthesis of epothilones, intermediates thereto and analogues thereof” (Sloan-Kettering Institute for Cancer Research, priority 1996, dated 2005).

Columns and labels:
[1] = Stability in plasma in vitro (HPLC); assay type: in vitro ADME, human
Description: (§1) (FIG. 44). […] (FIG. 44).
(§2) Human blood plasma or nude mice plasma (300 μl) containing dEpoB (0.05-20 μg/ml) was added 30 μl of methanol and mixed for 2 min and then added 300 μl of methanol. The centrifuge supernatant was used for high performance liquid chromatography (HPLC). Nova-pak C18 column (15 cm) was used, with 50% acetonitrile/water with 0.8% triethylamine and 0.2% phosphoric acid as mobile phase. UV absorbance at 250 nm was measured.
(§3) Stability of dEpoF in animal plasmas. A HPLC method is set up using a NovaPak C 18, 3.9×300 mm column with a mobile phase of 50% acetonitrile in 50 mM potassium dihydrogen phosphate with 0.01% triethylamine at a flow rate of 0.8 ml/min. dEpoF is monitored at a wavelength of 260 nm and has a retention time of about 10 min. The plasma stability is performed with mouse plasma and dog plasma purchased from Pel-Freeze and human plasma from the blood center in MSKCC. A small amount of dEpoF was dissolved in 50% methanol/water at a concentration of 500 μg/mL. An aliquot of 20 μL is then spiked to 2 mL of plasma to a final plasma concentration of 5 μg/mL. The plasma samples were kept at 37 degree. […] Twenty μL of the supernatant was analyzed by HPLC without further modification. dEpoF disappears rapidly with half life about one hour in the commercial frozen mouse plasma alone, but stable in dog and human plasma.

CCRF-CEM/VBL = assay: Relative potency in vitro, very highly resistant MDR cells; assay type: cell-based, human; conditions: for IC50: Homo sapiens, CCRF-CEM, read-out: CCRF-CEM/VBL IC50 in μM; for Fold of Resistance (B)/(A): [IC50 CCRF-CEM/VBL]/[IC50 CCRF-CEM]
Description: The cells were cultured at an initial density of 2-5×10^4 cells per ml. They were maintained in a 5% CO2-humidified atmosphere at 37° C. in RPMI mediun 1640 (GIBCO/BRL) containing penicillin (100 units/ml), streptomycin (100 μg/ml) (GIBCO/BRL), and 5% heat-inactivated fetal bovine serum. For solid tumor cells growing in a monolayer (such as MCF-7/Adr), cytotoxicitiy of the drug was determined in 96-well microtiter plates by using the sulforhodamine B method as described by Skehan et al (23) for measuring the cellular protein content. For cells that were grown in suspension (such as CCRF-CEM and its sublines), cytotoxicitiy was measured by using the 2,-3-bis(2-methoxy-4-nitro-5-sulfophenyl)-5carboxanilide)-2H terazodium hydroxide (XTT)-microculture tetrazonium method (24) in duplicate in 96-well microtiter plates. For both methods, the absorbance of each well was measured with a microplate reader (EL-340, Bio-Tek, Burlington, Vt.). Each run entailed six or seven concentrations of the tested drugs. Dose-effect relationship data were analyzed with the median-effect plot (25) by using a previously described computer program (26).

[2] = Stability in plasma in vitro (HPLC); assay type: in vitro ADME, mouse
Description: as §1, §2, §3

[3] = tested on: PC-3 prostate adenocarcinoma xenograft; assay: Human tumor xenograft in nude mice; assay type: in vivo
Outline: (§4)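 Male athymic nu/nu mice bearing s.c. flank tumours from 5×10^6 cells or 30-50 mg tissue; dosing began at 35-200 mm^3 as 6 hr tail-vein i.v. infusion every other day ×5 unless otherwise indicated. Caliper tumour volume, body weight and lethality recorded every other day; 3-5 mice per group.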

[4] = tested on: A549 lung carcinoma xenograft; assay: Human tumor xenograft in nude mice; assay type: in vivo
Outline: as §4

[5] = tested on: CCRF-CEM/VBL leukemia xenograft; assay: Human tumor xenograft in nude mice; assay type: in vivo; conditions: for Lowest Average Tumor Size (T/C) / Tumor Disappearance: CCRF/VBL, dEpoB 30 mg/kg, Taxol 20 mg/kg, Q2Dx5, 6-hr i.v. infusion
Outline: as §4

[6] = tested on: CCRF-CEM/Taxol leukemia xenograft; assay: Human tumor xenograft in nude mice; assay type: in vivo; conditions: for Lowest Average Tumor Size (T/C) / Tumor Disappearance: CCRF/Taxol, dEpoB 30 mg/kg, Taxol 20 mg/kg, Q2Dx5, 6-hr i.v. infusion
Outline: as §4

[7] = tested on: UL3-C ovary adenocarcinoma xenograft; assay: Human tumor xenograft in nude mice; assay type: in vivo
Outline: as §4

[8] = tested on: SK-OV-3 ovary adenocarcinoma xenograft; assay: Human tumor xenograft in nude mice; assay type: in vivo
Outline: as §4

B16 Melanoma = assay type: in vivo, murine; conditions: mouse, in vivo
[9] = PC-3, dEpoB 40 mg/kg, Taxol 15 mg/kg, Q2Dx3, 6-hr i.v. infusion
[10] = A549, dEpoB 40 mg/kg, Taxol 15 mg/kg, Q2Dx3, 6-hr i.v. infusion
[11] = dEpoB 30 mg/kg, Taxol 20 mg/kg, Q2Dx5, 6-hr i.v. infusion
[12] = SK-OV-3, dEpoB 30 mg/kg, Taxol 15 mg/kg, Q2Dx6, 6-hr i.v. infusion

## C/C1=C/C[C@@H](/C(C)=C/c2csc(CO)n2)OC(=O)C[C@H](O)C(C)(C)C(=O)[C@H](C)[C@@H](O)[C@@H](C)CCC1 [dEpoF, 12,13-Desoxyepothilone F]
[1]; 5 μg/mL, 37 degree
  stability in human plasma: stable
CCRF-CEM/VBL
  IC50: 0.287 µM
  Fold of Resistance (B)/(A): 33.6 x
CCRF-CEM/VBL; MDR CCRF-CEM/VBL cells
  potency relative to dEpoB (times less potent): 4.5 ×
[2]; commercial frozen mouse plasma, 5 μg/mL, 37 degree
  half life in mouse plasma: about one

## CC(=O)O[C@H]1C(=O)[C@@]2(C)[C@H]([C@H](OC(=O)c3ccccc3)[C@]3(O)C[C@H](OC(=O)[C@H](O)[C@@H](NC(=O)c4ccccc4)c4ccccc4)C(C)=C1C3(C)C)[C@]1(OC(C)=O)CO[C@@H]1C[C@@H]2O [Taxol, paclitaxel, reference compound]
[3]; [9]
  Tumor Disappearance: 0/4
[4]; [10]
  Tumor Disappearance: 2/4
[5]
  Lowest Average Tumor Size (T/C): 0.62
  Tumor Disappearance: 0/2
[6]
  Lowest Average Tumor Size (T/C): 0.32
  Tumor Disappearance: 0/2
[7]; [11]
  Tumor Disappearance: 0/3

## C/C1=C/C[C@@H](/C(C)=C/c2csc(C)n2)OC(=O)C[C@H](O)C(C)(C)C(=O)[C@H](C)[C@@H](O)[C@@H](C)CCC1 [dEpoB, 12,13-desoxyepothilone B]
[1]; human plasma, HPLC
  period of stability in human plasma in vitro: over 3 hrs
[3]; PC-3, i.v. infusion
  Therapeutic Effect Rank Order: Taxol, VBL>dEpoB>>VP-16
[3]; PC-3, i.v. or i/p.
  Therapeutic Effect Rank Order: Taxol>dEpoB>>Adriamycin
[3]; PC-3, dEpoB 40 mg/kg, Taxol 15 mg/kg, Q2Dx3
  Therapeutic Effects dEpoB vs Taxol: <<
[3]; [9]
  Lowest Average Tumor Size (T/C): 0.12
  Tumor Disappearance: 0/3
[4]; A549, i.v. infusion
  Therapeutic Effect Rank Order: Taxol, dEpoB, VBL>VP-16
[4]; [10]
  Lowest Average Tumor Size (T/C): 0.01
  Tumor Disappearance: 1/3
[5]; CCRF-CEM/VBL, i.v. infusion
  Therapeutic Effect Rank Order: dEpoB>>>Taxol
[5]
  Lowest Average Tumor Size (T/C): 0
  Tumor Disappearance: 2/2
[8]; SK-OV-3, i.v. infusion
  Therapeutic Effect Rank Order: Taxol>>dEpoB
[8]; SK-OV-3, i.v. or i.p., ref 19 (Table 6)
  Therapeutic Effect Rank Order: dEpoB≈Taxol
[8]; SK-OV-3, dEpoB 30 mg/kg, Taxol 15 mg/kg, Q2Dx6
  Therapeutic Effects dEpoB vs Taxol: <<
[8]; [12]
  Lowest Average Tumor Size (T/C): 0.17
  Tumor Disappearance: 0/3
[6]; CCRF-CEM/Taxol, i.v. infusion
  Therapeutic Effect Rank Order: dEpoB>>>Taxol
[6]
  Lowest Average Tumor Size (T/C): 0
  Tumor Disappearance: 3/3
[7]; [11]
  Lowest Average Tumor Size (T/C): 0.03
  Tumor Disappearance: 0/3
[7]; i.v. infusion
  Therapeutic Effect Rank Order: dEpoB≧ Taxol
CCRF-CEM/VBL
  IC50: 0.637 µM
  Fold of Resistance (B)/(A): 8.6 x
[2]; nude, mouse, plasma, nude mice plasma, HPLC, read-out: t1/2 in nude mice plasma in vitro
  half-life: ~20 min
B16 Melanoma
  Therapeutic Effect Rank Order: dEpoB>Taxol>>EpoB
